Results from US8071555B2, “Protective skin care peptides” (Helix BioMedix Inc., priority 2007, dated 2011).
Where “and” joins values, the source holds several entries; their conditions need not be identical. Equal entries are not always repeated. Ends that are not written are not given here. Peptide text beside a SMILES is read from it. * marks the point of attachment. Decanoyl = CCCCCCCCCC(=O)*

Columns and labels:
[1] = biological target: T1, plasmin (Homo sapiens, UniProt P00747); assay: Peptide degradation by plasmin with or without protease inhibitor (LC/MS); format: in vitro ADME; conditions: for Survival: peptide 1 mg/mL
T1 construct: purchased Sigma-Aldrich
Protocol: (§1) Peptides of synthetic origin and LL-37 were used in the protease processing experiments at a concentration of 1-2 mg/mL in 0.5M MOPS pH 8.5/0.5M NaCl final buffer concentration. Proteases were used at a concentration of 0.020-0.050 mg/mL.
(§2) Experiments were run in pairs, one with protease inhibitor and one without a protease inhibitor. Liquid chromatography/mass spectrometry (LC/MS) spectra were collected at approximately 1-minute, 1-hour, 4-hour and 24-hour time points from the time of adding protease to the peptide (time zero). LC/MS spectra were collected using a standard reverse phase gradient starting at 5% acetonitrile and ramping up to 65% acetonitrile in 25 minutes.
(§3) The proteases employed in the study were initially dissolved in a 1M NaCl solution, while the peptides were dissolved in 1M MOPS buffer at pH 8.5. The solutions were equilibrated to 37° C. and then mixed at a ratio of 1:1 to start each experiment. Lower buffer concentrations were also used (0.1M MOPS pH 8.5 and 0.2M NaCl). Protease inhibitors were tested at several different concentrations (low and high from 0.02 mg/mL to 40 mg/mL) against a given protease.
(§4) The mass spectrometer used in these studies has a limit of detection below which the specific molecular weight of a molecule cannot be identified from the TIC trace. In these below-detection situations, it was assumed that the tested peptide was completely degraded.
(§5) A series of experiments were performed employing the above-described methodology to determine the utility of the invention as it regards a wider range of proteases, peptides and protease inhibitors. If, at any specific time-point, there was no detectable parent peptide (i.e., the absence of non-degraded peptide), then that time-point was documented as the time required for peptide degradation.

[2] = biological target: T2, chymotrypsin (Bos taurus, UniProt P00766); assay: Peptide degradation by chymotrypsin with or without protease inhibitor (LC/MS); format: in vitro ADME; conditions: peptide 1 mg/mL
T2 construct: purchased Sigma-Aldrich
Protocol: as §1, §2, §3, §4, §5

[3] = system: IL-6 expression; assay: UVB-induced IL-6 expression in human skin epithelial cells (ELISA); format: cell-based; conditions: for reduction of IL-6 levels: skin epithelial cells treated with UVB; for repression of UVB-induced IL-6 expression: skin epithelial cells, peptide 40 μg/mL, 24 hours post UVB
Protocol: (§6) Human skin epithelial cells (ATCC CRL-2592), keratinocytes (ATCC CRL-2404) and skin fibroblasts (ATCC CRL-7481) were employed in the study. Cells were seeded into 6-well plates and allowed to grow to >95% confluence in Dulbecco's modified Eagle's medium (DMEM; 4 mM L-glutamine, 4.5 g/L glucose) adjusted to contain 1.5 g/L sodium bicarbonate and supplemented with 10% fetal bovine serum (FBS). For keratinocytes, cells were grown in keratinocyte growth media (without serum) supplemented with 5 ng/mL human recombinant epithelial growth factor (EGF; Invitrogen, Grand Island, N.Y.). After the cell monolayer reached >95% confluence, the cells were serum-starved or EGF-starved for 24 hours in complete medium without serum. UVA or UVB was generated using a UVLMS lamp (4-W model, 3UV assembly; Upland, Calif.) with the irradiation wavelength set at 365 or 302 nm, respectively. The UV lamp was placed 15 cm above the tissue culture plate. Before UV treatment, the tissue culture media was replaced with PBS, after which the cells were placed under the UVB lamp (450 μW/cm^2, measured using a radiometer) for 35 seconds (epithelial cells and fibroblasts) or 25 seconds (keratinocytes). UVA treatment was conducted (500 μW/cm^2) for 30 seconds with fibroblasts. After UV treatment, PBS was immediately replaced with complete medium (without serum or EGF) containing either no peptide or peptide at a specified concentration, and the plates were incubated at 37° C., 5% CO2 for 15-24 hours. The cell media was then collected and spun down at 15000 rpm for 2 minutes to remove cell debris. IL-6 and MMP-1 levels in the media were measured, respectively, using human IL-6 (DIACLONE, Stamford, Conn.) and MMP-1 (Calbiochem, San Diego, Calif.) ELISA kits according to manufacturers' instructions. These measurements served as indicators of cell inflammatory activity in response to UV exposure.
All the tetrapeptides listed in Table I were subjected to a screening test at 40 μg/mL for potential down-regulation of this response (data not shown).
P1422 (SEQ ID NO:1) reduced IL-6 levels by 19% and 25% at 10 and 20 μg/mL, respectively; and P1423 (SEQ ID NO:2) reduced IL-6 levels by 10% and 20% at 10 and 20 μg/mL, respectively.

[4] = system: IL-6 expression; assay: UVB-induced IL-6 expression in human keratinocytes (ELISA); format: cell-based; conditions: UVB-treated human keratinocytes; peptide 10 μg/mL
Protocol: as §6, with “UVA treatment was conducted (500 μW/cm^2) for 30 seconds with fibroblasts. After UV treatment, PBS was immediately replaced with complete medium (without serum or EGF) containing either no peptide or peptide at a specified concentration, and the plates were incubated at 37° C., 5% CO2 for 15-24 hours. The cell media was then collected and spun down at 15000 rpm for 2 minutes to remove cell debris.” left out, “These measurements served as indicators of cell inflammatory activity in response to UV exposure.” left out

[5] = system: IL-6 expression; assay: UVB-induced IL-6 expression in human skin fibroblasts (ELISA); format: cell-based; conditions: human fibroblasts after UVB
Protocol: as §6
Such peptide-mediated IL-6 down-regulation was also evident in human fibroblasts after exposure to UVB.

[6] = system: MMP-1 expression; assay: UVA-induced MMP-1 expression in human skin fibroblasts (ELISA); format: cell-based; conditions: UVA 500 μW/cm^2, peptide 10 μg/mL
Protocol: as §6, with “UVA treatment was conducted (500 μW/cm^2) for 30 seconds with fibroblasts. After UV treatment, PBS was immediately replaced with complete medium (without serum or EGF) containing either no peptide or peptide at a specified concentration, and the plates were incubated at 37° C., 5% CO2 for 15-24 hours. The cell media was then collected and spun down at 15000 rpm for 2 minutes to remove cell debris.” left out, “These measurements served as indicators of cell inflammatory activity in response to UV exposure.” left out

[7] = system: MMP-1 expression; assay: MMP-1 induction in fibroblasts incubated in media conditioned by UVB-treated keratinocytes (ELISA); format: cell-based, human; conditions: peptide 10 μg/mL
Protocol: as §6, with “UVA treatment was conducted (500 μW/cm^2) for 30 seconds with fibroblasts. After UV treatment, PBS was immediately replaced with complete medium (without serum or EGF) containing either no peptide or peptide at a specified concentration, and the plates were incubated at 37° C., 5% CO2 for 15-24 hours. The cell media was then collected and spun down at 15000 rpm for 2 minutes to remove cell debris.” left out, “These measurements served as indicators of cell inflammatory activity in response to UV exposure.” left out

[8] = system: trypsin; assay: Peptide degradation by trypsin with or without protease inhibitor (LC/MS); format: in vitro ADME; conditions: for Survival: Trypsin 25 μg/mL, peptide 1 mg/mL
Protocol: as §1, §2, §3, §4, §5

[9] = system: elastase; assay: Peptide degradation by elastase with or without protease inhibitor (LC/MS); format: in vitro ADME; conditions: Elastase 25 μg/mL, peptide 1 mg/mL
Protocol: as §1, §2, §3, §4, §5

[10] = system: kallikrein; assay: Peptide degradation by kallikrein with or without protease inhibitor (LC/MS); format: in vitro ADME; conditions: Kallikrein 25 μg/mL, peptide 1 mg/mL
Protocol: as §1, §2, §3
The mass spectrometer used in these studies has a limit of detection below which the specific molecular weight of a molecule cannot be identified from the TIC trace. In these below-detection situations, it was assumed that the tested peptide was completely degraded. […]

T1 sequence (P00747 581-810 limits assumed, species assumed): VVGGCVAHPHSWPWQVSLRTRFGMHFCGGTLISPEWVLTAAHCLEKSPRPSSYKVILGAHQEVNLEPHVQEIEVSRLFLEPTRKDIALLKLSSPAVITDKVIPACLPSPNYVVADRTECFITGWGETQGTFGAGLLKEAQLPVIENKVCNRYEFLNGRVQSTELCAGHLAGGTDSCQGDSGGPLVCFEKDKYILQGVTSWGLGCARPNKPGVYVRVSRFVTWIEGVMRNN
T1 sequence (P00747 97-580 limits assumed, species assumed): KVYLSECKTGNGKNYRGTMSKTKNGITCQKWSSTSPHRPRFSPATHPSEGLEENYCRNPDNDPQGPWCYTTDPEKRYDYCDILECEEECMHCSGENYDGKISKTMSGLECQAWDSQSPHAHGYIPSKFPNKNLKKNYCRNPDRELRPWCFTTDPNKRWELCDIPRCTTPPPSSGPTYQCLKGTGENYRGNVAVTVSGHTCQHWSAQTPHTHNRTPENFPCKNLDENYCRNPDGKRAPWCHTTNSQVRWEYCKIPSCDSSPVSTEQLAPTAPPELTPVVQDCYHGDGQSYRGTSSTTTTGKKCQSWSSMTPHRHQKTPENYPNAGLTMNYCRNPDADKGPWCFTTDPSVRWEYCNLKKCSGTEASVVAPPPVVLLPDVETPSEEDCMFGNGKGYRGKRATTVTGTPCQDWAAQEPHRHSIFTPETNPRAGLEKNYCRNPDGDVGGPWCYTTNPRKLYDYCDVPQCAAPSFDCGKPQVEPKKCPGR

CC[C@H](C)[C@H](NC(=O)[C@H](CCCCN)NC(=O)[C@H](CCC(=O)O)NC(=O)[C@H](CCCCN)NC(=O)[C@H](CO)NC(=O)[C@H](CCCCN)NC(=O)[C@H](CCCNC(=N)N)NC(=O)[C@H](Cc1ccccc1)NC(=O)[C@H](Cc1ccccc1)NC(=O)[C@H](CC(=O)O)NC(=O)CNC(=O)[C@H](CC(C)C)NC(=O)[C@@H](N)CC(C)C)C(=O)NCC(=O)N[C@@H](CCCCN)C(=O)N[C@@H](CCC(=O)O)C(=O)N[C@@H](Cc1ccccc1)C(=O)N[C@@H](CCCCN)C(=O)N[C@@H](CCCNC(=N)N)C(=O)N[C@H](C(=O)N[C@H](C(=O)N[C@@H](CCC(N)=O)C(=O)N[C@@H](CCCNC(=N)N)C(=O)N[C@H](C(=O)N[C@@H](CCCCN)C(=O)N[C@@H](CC(=O)O)C(=O)N[C@@H](Cc1ccccc1)C(=O)N[C@@H](CC(C)C)C(=O)N[C@@H](CCCNC(=N)N)C(=O)N[C@@H](CC(N)=O)C(=O)N[C@@H](CC(C)C)C(=O)N[C@H](C(=O)N1CCC[C@H]1C(=O)N[C@@H](CCCNC(=N)N)C(=O)N[C@H](C(=O)N[C@@H](CCC(=O)O)C(=O)N[C@@H](CO)C(=O)O)[C@@H](C)O)C(C)C)[C@@H](C)CC)C(C)C)[C@@H](C)CC [LL-37]
parent peptide detection [1]: undetectable | Survival ([1]; Plasmin 22 μg/mL, no protease inhibitor): <1 h | Survival ([1]; Plasmin 22 μg/mL, no protease inhibitor, Expt. 38): <0.75 h | Survival ([1]; Plasmin 22 μg/mL, tranexamic acid 9 mg/mL): <4 h | Survival ([2]; Chymotrypsin 22 μg/mL, no protease inhibitor): <1 h | Survival ([2]; Chymotrypsin 22 μg/mL, tranexamic acid 9 mg/mL): <1 h

PQEK-NH2 [P1422, tetrapeptide amidated at the carboxy terminus]
reduction of IL-6 levels ([3]; peptide 10 μg/mL): 19% | reduction of IL-6 levels ([3]; peptide 20 μg/mL): 25% | repression of UVB-induced IL-6 expression [3]: reproducible repression | down-regulation of IL-6 expression [4]: down-regulate IL-6 expression | reduction of IL-6 levels compared to control ([5]; peptide 10 μg/mL): 30% | reduction of IL-6 ([5]; peptide concentrations lower than 10 μg/mL): no significant reduction | down-regulation of UVA-induced MMP-1 expression [6]: able to down-regulate | MMP-1 induction [7]: far less MMP-1 induction

CCCCCCCCCC(=O)N[C@@H](CCCCN)C(=O)N[C@@H](Cc1ccccc1)C(=O)N[C@@H](CCCCN)C(=O)N[C@@H](Cc1c[nH]c2ccccc12)C(=O)N1CCC[C@H]1C(=O)N[C@@H](Cc1c[nH]c2ccccc12)C(N)=O [HB1345, decanoyl-KFKWPW-NH2] (Decanoyl-KFKWPW-NH2)
Survival ([8]; aprotinin 0.02 mg/mL): >24 h | Survival ([8]; no protease inhibitor): <1 h

FALLKL-NH2 [HB168]
Survival ([8]; aprotinin 0.02 mg/mL): >24 h | Survival ([8]; no protease inhibitor): <1 h

PQEI-NH2 [P1423, tetrapeptide amidated at the carboxy terminus]
reduction of IL-6 levels ([3]; peptide 10 μg/mL): 10% | reduction of IL-6 levels ([3]; peptide 20 μg/mL): 20% | repression of UVB-induced IL-6 expression [3]: reproducible repression | down-regulation of IL-6 expression [4]: down-regulate IL-6 expression | reduction of IL-6 levels compared to control ([5]; peptide 2 μg/mL): 24% | reduction of IL-6 levels compared to control ([5]; peptide 5 μg/mL): 30% | reduction of IL-6 levels compared to control ([5]; peptide 10 μg/mL): 48% | down-regulation of UVA-induced MMP-1 expression [6]: able to down-regulate | MMP-1 induction [7]: far less MMP-1 induction

FAKALKALLKALKAL-NH2 [HB64, FAKALKALLKALKAL-NH2]
parent peak in TIC traces [8]: reduced over time | Survival ([9]; aprotinin 0.02 mg/mL): <1 h | Survival ([9]; no protease inhibitor): <1 h | Survival ([9]; tranexamic acid 0.80 mg/mL): <1 h | Survival ([1]; Plasmin 20 μg/mL, no protease inhibitor): <4 h | Survival ([1]; Plasmin 22 μg/mL, tranexamic acid 40 mg/mL): <24 h | Survival ([1]; Plasmin 25 μg/mL, no protease inhibitor): <4 h and <6 h | Survival ([1]; Plasmin 46 μg/mL, no protease inhibitor): <4 h | Survival ([1]; Plasmin 50 μg/mL, tranexamic acid 10 mg/mL): <6 h | amount of parental peptide by XIC trace compared to plasmin alone ([1]; plasmin plus tranexamic acid vs plasmin alone): five-times greater | protection of peptide (TIC and XIC traces) ([1]; plasmin plus tranexamic acid, 4-hour exposure): protected from plasmin-mediated proteolysis | degradation of peptide (TIC and XIC traces) ([1]; plasmin, no inhibitor, 4-hour exposure): most of the HB64 peptide was degraded | Survival ([10]; no protease inhibitor): <24 h | Survival ([10]; tranexamic acid 0.80 mg/mL): <24 h | Survival ([2]; Chymotrypsin 25 μg/mL, aprotinin 0.02 mg/mL): <24 h | Survival ([2]; Chymotrypsin 25 μg/mL, no protease inhibitor): <1 h
